We go through 9 compounds from article PMC7435600, “Flavonoids and Terpenoids with PTP-1B Inhibitory Properties from the Infusion of Salvia amarissima Ortega” (Molecules, 2020).

Assay [1] has as its target T1, protein tyrosine phosphatase 1B (PTP-1B) (Homo sapiens, UniProt P18031).
T1 construct: made in house
T1 sequence (P18031 1-435): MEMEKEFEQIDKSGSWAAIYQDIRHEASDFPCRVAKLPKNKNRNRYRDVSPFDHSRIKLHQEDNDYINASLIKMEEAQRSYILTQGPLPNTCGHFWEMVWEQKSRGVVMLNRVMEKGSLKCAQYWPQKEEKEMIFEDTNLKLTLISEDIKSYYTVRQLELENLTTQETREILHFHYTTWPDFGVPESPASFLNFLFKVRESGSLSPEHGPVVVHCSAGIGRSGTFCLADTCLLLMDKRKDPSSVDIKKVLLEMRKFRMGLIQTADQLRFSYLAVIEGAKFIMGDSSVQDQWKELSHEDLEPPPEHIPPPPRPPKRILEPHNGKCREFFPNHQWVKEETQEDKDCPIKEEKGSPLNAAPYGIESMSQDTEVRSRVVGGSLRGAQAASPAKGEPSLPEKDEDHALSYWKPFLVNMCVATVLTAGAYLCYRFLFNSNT
The experiment in a line: Protein tyrosine phosphatase 1B inhibition assay (pNPP). The class given is biochemical. To be noted: for IC50: hPTP-1B, pNPP substrate, three independent determinations, read-out: PTP-1B inhibitory activity expressed as IC50 (converted). The method, then:
The expression and purification of hPTP-1B was performed as previously described. […] Aliquots of 0–10 μL of testing materials (triplicated) were incubated for 5 min with 20 μL of enzyme stock solution in Tris-HCl (22 nM). After incubation, 10 μL of p-nitrophenylphosphate (pNPP; 5 mM) was added and further incubated for 15 min at 25 °C; then, the absorbance was determined (λmax 415 nm). For all samples, the inhibitory activity was determined as a percentage in comparison to the blank (Tris-HCl) according to the following equation:(1) % PTP1B=(1−A415t/A415C)×100 where % PTP-1B is the percentage of inhibition, A415t is the corrected absorbance of the extracts, fraction, or compounds under testing (A415end − A415initial) and A415C is the absorbance of the blank (A415end blank − A415initial blank).

The subject of assay [2] is PTP-1B. Further details: method as in PMID 22940448. Conditions: other studies; cited from earlier work.
Details of assay [3]: method as in doi:10.17129/botsci.2187. To be noted: cited from earlier work.
Assay [4] relates to mammal α-glucosidases. Set-up: method as in PMID 28422509. Conditions: cited from earlier work.

For `O=c1c(O[C@@H]2O[C@H](CO)[C@@H](O)[C@H](O)[C@H]2O)c(-c2ccc(O)c(O)c2)oc2cc(O)cc(O)c12` [Compound 6, isoquercitrin], in assay [1], the IC50 was 260 µM.
Still for that read-out and setting: for `C[C@@H]1CC[C@@]23COC(=O)C2=C[C@@H](O[C@@H]2O[C@H](CO)[C@@H](O)[C@H](O)[C@H]2O)C[C@@H]3[C@@]1(C)CCC1=CC(=O)OC1O` (stereo partly drawn) [Compound 8a,b, (2S,5S,8R,9R,10R,14R,S)-2-(O-β-D-glucopyranosyl)-neo-clerodan-14-hydroxy-3, 13-diene-14,15;18,19-diolide] the value was 514 µM; for `O=C(/C=C/c1ccc(O)c(O)c1)O[C@H](Cc1ccc(O)c(O)c1)C(=O)O` [Compound 5, rosmarinic acid], 137 µM.
As for `C[C@H]1[C@H](C)CC[C@]2(C(=O)O)CC[C@]3(C)C(=CC[C@@H]4[C@@]5(C)CC[C@H](O)C(C)(C)[C@@H]5CC[C@]43C)[C@H]12` [UA, ursolic acid, reference compound], the “times more active than compound 7 experimentally” value in assay [1] (ratio of PTP-1B IC50, UA vs compound 7) worked out at 2.2 times. Moreover, the IC50 in assay [2] is […].
Regarding `CC1CCC23COC(=O)C2=CC(OC2OC(CO)C(O)C(O)C2O)CC3C1(C)CCc1ccoc1` (stereo not drawn) [Compound 1, amarisolide], in assay [1], the IC50 was 280 µM. Also, the antinociceptive properties entry in assay [3] is “demonstrated”. Besides, the “inhibitory activity against mammal α-glucosidases” value in assay [4] (in vitro and in vivo) was “showed inhibitory activity”. The “inhibition of α-glycosidases in vivo” value in assay [4] is recorded as “inhibited”.
Take `C[C@@H]1O[C@@H](OC[C@H]2O[C@@H](Oc3c(-c4ccc(O)c(O)c4)oc4cc(O)cc(O)c4c3=O)[C@H](O)[C@@H](O)[C@@H]2O)[C@H](O)[C@H](O)[C@H]1O` [Compound 4, rutin]: the IC50 in assay [1] is 323 µM.
Same read-out and setting: for `O=c1cc(-c2ccc(O)c(O)c2)oc2cc(O)c(O)c(O)c12` [Compound 3, 6-hydroxyluteolin] the value was 80.1 µM.
The same measure, in the same setting: as for `COc1cc(-c2cc(=O)c3c(O)c(O)c(OC)cc3o2)ccc1O` [Compound 2, 5,6,4′-trihydroxy-7,3′-dimethoxyflavone], the figure is 189 µM.
`COc1cc2oc(-c3ccc(O)c(O)c3)cc(=O)c2c(O)c1O` [Compound 7, pedalitin]: in assay [1], the IC50 is 62 µM. Also, the antinociceptive properties entry in assay [3] is “demonstrated”. Further, in assay [4], the “inhibition of α-glycosidases in vivo” value is “inhibited”.
